Assay results from PubChem BioAssay (NCI).
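Five concentrations, 48 hours, 96-well plates. TGI: concentration producing complete growth inhibition.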

Legend:
Assay in all cases: growth of human tumour cells (NCI), 48 h
[1] = system: MOLT-4 leukemia
[2] = system: NCI/ADR-RES ovarian
[3] = system: NCI-H460 lung
[4] = system: ACHN renal
[5] = system: RPMI-8226 leukemia
[6] = system: COLO 205 colon
[7] = system: MDA-MB-231 breast
[8] = system: PC-3 prostate
[9] = system: SNB-19 CNS
[10] = system: SW-620 colon
[11] = system: A549 NSCLC
[12] = system: A498 renal
[13] = system: UACC-257 melanoma
[14] = system: MALME-3M melanoma
[15] = system: NCI-H23 lung
[16] = system: OVCAR-4 ovarian
[17] = system: RXF 393 renal
[18] = system: SR leukemia
[19] = system: CCRF-CEM leukemia
[20] = system: OVCAR-8 ovarian
[21] = system: IGROV1 ovarian
[22] = system: MDA-MB-435
[23] = system: HCT-15 colon
[24] = system: DU-145 prostate
[25] = system: KM12 colon
[26] = system: M14 melanoma
[27] = system: SF-539 CNS
[28] = system: 786-0 renal
[29] = system: SK-MEL-28 melanoma
[30] = system: NCI-H522 lung
[31] = system: HOP-92 NSCLC
[32] = system: U251 CNS
[33] = system: HCT-116 colon
[34] = system: HT29 colon
[35] = system: UO-31 renal
[36] = system: HS 578T breast
[37] = system: SF-268 CNS
[38] = system: OVCAR-5 ovarian
[39] = system: K-562 leukemia
[40] = system: UACC-62 melanoma
[41] = system: LOX IMVI melanoma
[42] = system: TK-10 renal
[43] = system: T-47D breast
[44] = system: MCF7 breast
[45] = system: HCC-2998 colon
[46] = system: CAKI-1 renal
[47] = system: SK-OV-3 ovarian
[48] = system: HOP-62 NSCLC
[49] = system: NCI-H226 lung
[50] = system: OVCAR-3 ovarian
[51] = system: EKVX NSCLC
[52] = system: SN12C renal
[53] = system: SF-295 CNS
[54] = system: SNB-75 CNS
[55] = system: SK-MEL-2 melanoma
[56] = system: HL-60(TB) leukemia

## CN(CCNCc1cn(C)c2c1ccc1ccccc12)CCNCc1cn(C)c2c1ccc1ccccc12
[1]
  TGI: 2810 nM
[2]
  TGI: 2540 nM
[3]
  TGI: > 100 µM
[4]
  TGI: 2970 nM
[5]
  TGI: > 100 µM
[6]
  TGI: 2330 nM
[7]
  TGI: 2990 nM
[8]
  TGI: 2570 nM
[9]
  TGI: 2300 nM
[10]
  TGI: 2570 nM
[11]
  TGI: 2310 nM
[12]
  TGI: 13.9 µM
[13]
  TGI: 3.03 µM
[14]
  TGI: 3.61 µM
[15]
  TGI: 2670 nM
[16]
  TGI: 2640 nM
[17]
  TGI: 1710 nM
[18]
  TGI: 2880 nM
[19]
  TGI: 2210 nM
[20]
  TGI: 3.34 µM
[21]
  TGI: 3.24 µM
[22]
  TGI: 2860 nM
[23]
  TGI: 2500 nM
[24]
  TGI: 2760 nM
[25]
  TGI: 2320 nM
[26]
  TGI: 904 nM
[27]
  TGI: 3.16 µM
[28]
  TGI: 1830 nM
[29]
  TGI: 2840 nM
[30]
  TGI: 2860 nM
[31]
  TGI: 3.38 µM
[32]
  TGI: 2110 nM
[33]
  TGI: 2330 nM
[34]
  TGI: 2770 nM

## O=C1CC(c2cccc(Br)c2)n2cccc21 (stereo not drawn)
[35]
  TGI: 66.9 µM
[36]
  TGI: > 100 µM
[37]
  TGI: > 100 µM
[1]
  TGI: > 100000 nM
[2]
  TGI: > 100000 nM
[38]
  TGI: > 100 µM
[39]
  TGI: > 100 µM
[4]
  TGI: > 100000 nM
[40]
  TGI: > 100 µM
[5]
  TGI: > 100 µM
[6]
  TGI: > 100000 nM
[41]
  TGI: > 100 µM
[42]
  TGI: > 100 µM
[7]
  TGI: > 100000 nM
[8]
  TGI: > 100000 nM
[9]
  TGI: > 100000 nM
[43]
  TGI: > 100 µM
[10]
  TGI: > 100000 nM
[11]
  TGI: > 100000 nM
[12]
  TGI: > 100 µM
[13]
  TGI: > 100 µM
[44]
  TGI: > 100 µM
[15]
  TGI: > 100000 nM
[45]
  TGI: > 100 µM
[16]
  TGI: > 100000 nM
[46]
  TGI: > 100 µM
[17]
  TGI: > 100000 nM
[18]
  TGI: > 100000 nM
[47]
  TGI: > 100 µM
[19]
  TGI: > 100000 nM
[48]
  TGI: > 100 µM
[20]
  TGI: > 100 µM
[21]
  TGI: > 100 µM
[22]
  TGI: > 100000 nM
[23]
  TGI: > 100000 nM
[24]
  TGI: > 100000 nM
[25]
  TGI: > 100000 nM
[49]
  TGI: > 100 µM
[26]
  TGI: > 100000 nM
[27]
  TGI: > 100 µM
[50]
  TGI: > 100 µM
[51]
  TGI: > 100 µM
[52]
  TGI: > 100 µM
[28]
  TGI: > 100000 nM
[53]
  TGI: > 100 µM
[29]
  TGI: > 100000 nM
[54]
  TGI: > 100 µM
[55]
  TGI: 95.3 µM
[30]
  TGI: > 100000 nM
[31]
  TGI: > 100 µM
[56]
  TGI: 87.3 µM
[32]
  TGI: > 100000 nM
[33]
  TGI: > 100000 nM
[34]
  TGI: > 100000 nM
